This passage reports Emax and EC50 results from patent publication US9168259B2 (GRÜNENTHAL GMBH, priority 2010, dated 2015).

The assay concerns the target T1, KCNQ2/3 channels (Homo sapiens, UniProt O43525+O43526).
T1 construct: expressed in transfected cells
As to the kind of experiment: Fluorescence assay using a voltage sensitive dye (fluorimetry). Format: cell-based. The conditions noted are these: CHO-K1 cells expressing KCNQ2/3; for Emax: CHO-K1, plateau effect relative to saturated retigabine (50 μM) = 100%, negative values = antagonistic, read-out: Fluorimetry % efficacy (retigabine = 100%); for EC50: IC50 where % efficacy is negative, read-out: Fluorimetry EC50/IC50.

T1 sequence (O43526 whole entry): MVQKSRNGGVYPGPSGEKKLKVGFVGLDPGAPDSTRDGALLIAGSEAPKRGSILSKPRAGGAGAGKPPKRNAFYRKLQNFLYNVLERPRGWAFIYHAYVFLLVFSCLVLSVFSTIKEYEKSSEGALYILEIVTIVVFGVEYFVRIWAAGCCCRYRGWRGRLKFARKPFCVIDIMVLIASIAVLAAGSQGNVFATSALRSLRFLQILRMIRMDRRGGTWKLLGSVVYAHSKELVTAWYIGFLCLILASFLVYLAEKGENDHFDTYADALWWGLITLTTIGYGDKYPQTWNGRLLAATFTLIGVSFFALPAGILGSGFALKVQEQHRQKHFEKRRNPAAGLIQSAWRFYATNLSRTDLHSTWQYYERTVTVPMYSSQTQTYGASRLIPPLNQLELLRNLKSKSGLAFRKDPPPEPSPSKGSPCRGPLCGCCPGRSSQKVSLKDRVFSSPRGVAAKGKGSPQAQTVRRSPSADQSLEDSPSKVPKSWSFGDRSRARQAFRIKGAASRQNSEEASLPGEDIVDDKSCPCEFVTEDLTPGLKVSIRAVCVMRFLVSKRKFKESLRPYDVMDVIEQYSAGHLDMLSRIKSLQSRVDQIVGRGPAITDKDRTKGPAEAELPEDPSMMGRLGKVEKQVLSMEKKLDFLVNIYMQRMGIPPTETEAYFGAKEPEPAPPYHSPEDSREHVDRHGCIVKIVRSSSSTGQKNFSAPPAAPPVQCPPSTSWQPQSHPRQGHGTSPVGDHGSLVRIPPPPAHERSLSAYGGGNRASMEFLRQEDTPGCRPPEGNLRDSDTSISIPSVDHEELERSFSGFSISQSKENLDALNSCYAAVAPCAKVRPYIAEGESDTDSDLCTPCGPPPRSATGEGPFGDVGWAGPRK
T1 sequence (O43525 whole entry): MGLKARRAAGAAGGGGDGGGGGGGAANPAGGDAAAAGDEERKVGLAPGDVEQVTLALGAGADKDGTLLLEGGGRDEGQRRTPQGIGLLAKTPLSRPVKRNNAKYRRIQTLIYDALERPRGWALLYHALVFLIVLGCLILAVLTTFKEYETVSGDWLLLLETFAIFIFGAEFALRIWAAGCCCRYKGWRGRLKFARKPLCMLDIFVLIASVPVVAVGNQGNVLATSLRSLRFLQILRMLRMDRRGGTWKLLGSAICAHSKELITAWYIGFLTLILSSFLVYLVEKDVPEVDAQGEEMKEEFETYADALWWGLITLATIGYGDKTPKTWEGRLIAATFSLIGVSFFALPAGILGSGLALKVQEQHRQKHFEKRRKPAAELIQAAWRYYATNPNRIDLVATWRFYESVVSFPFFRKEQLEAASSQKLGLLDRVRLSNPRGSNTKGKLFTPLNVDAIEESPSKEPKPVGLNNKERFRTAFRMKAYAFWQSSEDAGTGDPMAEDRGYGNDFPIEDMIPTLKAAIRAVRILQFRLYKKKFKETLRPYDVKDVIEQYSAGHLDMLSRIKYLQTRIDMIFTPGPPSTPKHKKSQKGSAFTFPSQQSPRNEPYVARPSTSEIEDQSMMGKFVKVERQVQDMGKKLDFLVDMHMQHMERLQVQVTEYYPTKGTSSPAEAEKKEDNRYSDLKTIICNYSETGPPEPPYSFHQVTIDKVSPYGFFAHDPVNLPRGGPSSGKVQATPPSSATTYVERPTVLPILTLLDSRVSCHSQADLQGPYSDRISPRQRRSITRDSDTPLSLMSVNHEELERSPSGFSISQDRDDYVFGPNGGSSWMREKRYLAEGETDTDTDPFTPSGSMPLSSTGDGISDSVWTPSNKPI

As for `CCSc1nc(N2CCc3nc(C(F)(F)F)ccc3C2)cc(C)c1C(=O)NCc1cccc(F)c1` [Example 232, 2-Ethylsulfanyl-N-[(3-fluorophenyl)-methyl]-4-methyl-6-[2-(trifluoromethyl)-5,6,7,8-tetrahydro-[1,6]naphthyridin-6-yl]-pyridine-3-carboxylic acid amide], the Emax worked out at 131% and the EC50 was 112 nM. With `CCSc1nc(N2CCOC[C@H]2C)cc(C)c1C(=O)NCc1cc(F)cc(F)c1` [Example 233, N-[(3,5-Difluoro-phenyl)-methyl]-2-ethylsulfanyl-4-methyl-6-[(3R)-3-methyl-morpholin-4-yl]-pyridine-3-carboxylic acid amide], the Emax was determined as 196% and the EC50 was found to be 70 nM. Regarding `COc1nc(N2CCOC[C@H]2C)cc(C)c1C(=O)NCc1cc(F)cc(F)c1` [Example 234, N-[(3,5-Difluoro-phenyl)-methyl]-2-methoxy-4-methyl-6-[(3R)-3-methyl-morpholin-4-yl]-pyridine-3-carboxylic acid amide], the Emax is 195% and the EC50 was found to be 124 nM.

Regarding `CCSc1nc(N2CCOC[C@H]2C)cc(C)c1C(=O)NCCCC(F)(F)F` [Example 235, 2-Ethylsulfanyl-4-methyl-6-[(3R)-3-methyl-morpholin-4-yl]-N-(4,4,4-trifluoro-butyl)-pyridine-3-carboxylic acid amide], the Emax came out at 235% and the EC50 is 196 nM. For `COc1nc(N2CCOC[C@H]2C)cc(C)c1C(=O)NCCCC(F)(F)F` [Example 236, 2-Methoxy-4-methyl-6-[(3R)-3-methyl-morpholin-4-yl]-N-(4,4,4-trifluoro-butyl)-pyridine-3-carboxylic acid amide], the Emax came out at 227% and the EC50 is 469 nM. For `CCSc1nc(N2CCOC[C@H]2C)cc(C)c1C(=O)NCc1ccc(C(F)(F)F)cc1` [Example 237, 2-Ethylsulfanyl-4-methyl-6-[(3R)-3-methyl-morpholin-4-yl]-N-[[4-(trifluoromethyl)-phenyl]-methyl]-pyridine-3-carboxylic acid amide], in that order: 148% and 56 nM. The like results for `COc1nc(N2CCOC[C@H]2C)cc(C)c1C(=O)NCc1ccc(C(F)(F)F)cc1` [Example 238, 2-Methoxy-4-methyl-6-[(3R)-3-methyl-morpholin-4-yl]-N-[[4-(trifluoromethyl)-phenyl]-methyl]pyridine-3-carboxylic acid amide] were, in that order, 164% and 102 nM. The like results for `CCSc1nc(N2CC(COC)C2)cc(C)c1C(=O)NCc1cccc(F)c1` [Example 239, 2-Ethylsulfanyl-N-[(3-fluorophenyl)-methyl]-6-[3-(methoxymethyl)-azetidin-1-yl]-4-methyl-pyridine-3-carboxylic acid amide] were, in that order, 125% and 1820 nM. For the compound `CCSc1nc(N2CC(C)OCC2C)cc(C)c1C(=O)NCc1cccc(F)c1` (stereo not shown) [Example 240, 6-(2,5-Dimethyl-morpholin-4-yl)-2-ethylsulfanyl-N-[(3-fluorophenyl)-methyl]-4-methyl-pyridine-3-carboxylic acid amide], the Emax was determined as 174% and the EC50 worked out at 394 nM. For `Cc1cc(N2CCOCC2)nc(N(C)C)c1C(=O)NCc1ccc(C(F)(F)F)cc1` [Example 241, 2-Dimethylamino-4-methyl-6-morpholin-4-yl-N-[[4-(trifluoromethyl)-phenyl]-methyl]-pyridine-3-carboxylic acid amide], in that order: 160% and 558 nM. For `Cc1cc(N2CCOCC2)nc(N(C)C)c1C(=O)NCc1cc(F)cc(F)c1` [Example 242, N-[(3,5-Difluoro-phenyl)-methyl]-2-dimethylamino-4-methyl-6-morpholin-4-yl-pyridine-3-carboxylic acid amide], in that order: 214% and 366 nM. The like results for `CCSc1nc(N2CCn3cc(C(F)(F)F)nc3C2)cc(C)c1C(=O)NCc1cccc(F)c1` [Example 243, 2-Ethylsulfanyl-N-[(3-fluorophenyl)-methyl]-4-methyl-6-[2-(trifluoromethyl)-5,6,7,8-tetrahydro-imidazo[1,2-a]pyrazin-7-yl]-pyridine-3-carboxylic acid amide] were, in that order, 105% and 1280 nM. `Cc1cc(N2CCOCC2)nc(N(C)C)c1C(=O)NCCCC(C)(C)C` [Example 245, 2-Dimethylamino-N-(4,4-dimethyl-pentyl)-4-methyl-6-morpholin-4-yl-pyridine-3-carboxylic acid amide]: the Emax is 225% and the EC50 stood at 345 nM. As for `Cc1cc(N2CCOCC2)nc(N(C)C)c1C(=O)NCCCC(F)(F)F` [Example 246, 2-Dimethylamino-4-methyl-6-morpholin-4-yl-N-(4,4,4-trifluoro-butyl)-pyridine-3-carboxylic acid amide], the Emax was determined as 173% and the EC50 is 4100 nM. In the case of `CCSc1nc(N2CCOCC2)cc(C)c1C(=O)NCc1ccc(S(C)(=O)=O)cc1` [Example 247, 2-Ethylsulfanyl-4-methyl-N-[(4-methylsulfonyl-phenyl)-methyl]-6-morpholin-4-yl-pyridine-3-carboxylic acid amide], the Emax was 38%. Regarding `CCSc1nc(N2CCOC[C@H]2COC)cc(C)c1C(=O)NCc1ccc(F)cc1` [Example 248, 2-Ethylsulfanyl-N-[(4-fluorophenyl)-methyl]-6-[(3R)-3-(methoxymethyl)-morpholin-4-yl]-4-methyl-pyridine-3-carboxylic acid amide], the Emax was found to be 223% and the EC50 was found to be 313 nM.

As for `CCSc1nc(N2CCOC[C@@H]2COC)cc(C)c1C(=O)NCc1ccc(F)cc1` [Example 249, 2-Ethylsulfanyl-N-[(4-fluorophenyl)-methyl]-6-[(3S)-3-(methoxymethyl)-morpholin-4-yl]-4-methyl-pyridine-3-carboxylic acid amide], the Emax was 129% and the EC50 is 82 nM. With `Cc1cc(N2CCOCC2)nc(C(C)(C)C)c1C(=O)NCc1cccc(F)c1` [Example 250, 2-tert-Butyl-N-[(3-fluorophenyl)-methyl]-4-methyl-6-morpholin-4-yl-pyridine-3-carboxylic acid amide], the Emax is 196% and the EC50 came to 371 nM. For `CCSc1nc(N2CCN(CC(F)(F)F)CC2)cc(C)c1C(=O)NCc1cccc(F)c1` [Example 251, 2-Ethylsulfanyl-N-[(3-fluorophenyl)-methyl]-4-methyl-6-[4-(2,2,2-trifluoro-ethyl)-piperazin-1-yl]-pyridine-3-carboxylic acid amide], in that order: 97% and 1590 nM. For `CCSc1nc(N2CCOC(C)(C)C2)cc(C)c1C(=O)NCc1cccc(F)c1` [Example 252, 6-(2,2-Dimethyl-morpholin-4-yl)-2-ethylsulfanyl-N-[(3-fluorophenyl)-methyl]-4-methyl-pyridine-3-carboxylic acid amide], in that order: 137% and 274 nM. Take `CCSc1nc(N(C)CC(C)=O)cc(C)c1C(=O)NCc1cccc(F)c1` [Example 253, 2-Ethylsulfanyl-N-[(3-fluorophenyl)-methyl]-4-methyl-6-[methyl-(2-oxo-propyl)-amino]-pyridine-3-carboxylic acid amide]: the Emax stood at 79% and the EC50 amounted to 5740 nM. The like results for `CCSc1nc(N2CCO[C@@H](COC)C2)cc(C)c1C(=O)NCc1ccc(Cl)cc1` [Example 254, N-[(4-Chlorophenyl)-methyl]-2-ethylsulfanyl-6-[(2R)-2-(methoxymethyl)-morpholin-4-yl]-4-methyl-pyridine-3-carboxylic acid amide] were, in that order, 113% and 943 nM. The like results for `CCSc1nc(N2CCO[C@H](COC)C2)cc(C)c1C(=O)NCc1ccc(Cl)cc1` [Example 255, N-[(4-Chlorophenyl)-methyl]-2-ethylsulfanyl-6-[(2S)-2-(methoxymethyl)-morpholin-4-yl]-4-methyl-pyridine-3-carboxylic acid amide] were, in that order, 121% and 169 nM. The like results for `CCSc1nc(N2CCOC[C@H]2COC)cc(C)c1C(=O)NCc1ccc(Cl)cc1` [Example 256, N-[(4-Chlorophenyl)-methyl]-2-ethylsulfanyl-6-[(3R)-3-(methoxymethyl)-morpholin-4-yl]-4-methyl-pyridine-3-carboxylic acid amide] were, in that order, 221% and 101 nM.

Consider `CCSc1nc(N2CCOC[C@@H]2COC)cc(C)c1C(=O)NCc1ccc(Cl)cc1` [Example 257, N-[(4-Chlorophenyl)-methyl]-2-ethylsulfanyl-6-[(3S)-3-(methoxymethyl)-morpholin-4-yl]-4-methyl-pyridine-3-carboxylic acid amide], for which the Emax was 125% and the EC50 was 23 nM. Regarding `CCSc1nc(N(C)C2CCOCC2)cc(C)c1C(=O)NCc1cccc(F)c1` [Example 258, 2-Ethylsulfanyl-N-[(3-fluorophenyl)-methyl]-4-methyl-6-(methyl-tetrahydro-pyran-4-yl-amino)-pyridine-3-carboxylic acid amide], the Emax turned out to be 170% and the EC50 amounted to 301 nM. For `CCSc1nc(N(C)C2CCC(OC)CC2)cc(C)c1C(=O)NCc1cccc(F)c1` (stereo not shown) [Example 259, 2-Ethylsulfanyl-N-[(3-fluorophenyl)-methyl]-6-[(4-methoxy-cyclohexyl)-methyl-amino]-4-methyl-pyridine-3-carboxylic acid amide], in that order: 133% and 298 nM. With `CCSc1nc(N2CCOC(C(F)(F)F)C2)cc(C)c1C(=O)NCc1cccc(F)c1` (stereo not shown) [Example 260, 2-Ethylsulfanyl-N-[(3-fluorophenyl)-methyl]-4-methyl-6-[2-(trifluoromethyl)-morpholin-4-yl]-pyridine-3-carboxylic acid amide], the Emax was determined as 127% and the EC50 was found to be 149 nM.
